A word on the inhibition: it is the change of the read-out against control, counted positive when it falls. A word on the Ki: it is a measure of affinity in units of concentration, obtained from inhibition or displacement.

T1 sequence (Q8NER1 whole entry): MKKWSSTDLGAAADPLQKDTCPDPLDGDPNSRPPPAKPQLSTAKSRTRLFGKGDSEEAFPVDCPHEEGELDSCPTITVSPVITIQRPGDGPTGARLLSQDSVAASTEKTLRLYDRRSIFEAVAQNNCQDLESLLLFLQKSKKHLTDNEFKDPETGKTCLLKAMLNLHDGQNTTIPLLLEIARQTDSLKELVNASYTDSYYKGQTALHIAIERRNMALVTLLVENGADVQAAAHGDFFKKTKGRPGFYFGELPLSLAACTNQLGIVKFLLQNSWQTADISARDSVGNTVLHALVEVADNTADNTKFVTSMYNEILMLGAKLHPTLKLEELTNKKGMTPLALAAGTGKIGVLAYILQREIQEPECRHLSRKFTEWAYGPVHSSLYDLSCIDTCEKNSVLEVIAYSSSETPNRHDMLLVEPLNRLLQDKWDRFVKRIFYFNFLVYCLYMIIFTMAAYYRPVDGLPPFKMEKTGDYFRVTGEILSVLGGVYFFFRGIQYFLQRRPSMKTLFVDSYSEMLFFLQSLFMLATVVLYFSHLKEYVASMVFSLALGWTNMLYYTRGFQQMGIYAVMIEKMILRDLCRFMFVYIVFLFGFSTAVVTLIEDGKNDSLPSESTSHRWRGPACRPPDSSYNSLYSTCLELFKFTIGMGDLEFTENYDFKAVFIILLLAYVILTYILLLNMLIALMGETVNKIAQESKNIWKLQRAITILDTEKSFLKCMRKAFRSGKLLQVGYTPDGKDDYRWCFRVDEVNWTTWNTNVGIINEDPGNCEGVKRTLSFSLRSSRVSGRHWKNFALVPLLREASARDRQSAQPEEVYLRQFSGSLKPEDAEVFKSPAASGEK

The first test has as its target T1, vanilloid receptor 1 (VR1/TRPV1 receptor) (Homo sapiens, UniProt Q8NER1).
T1 construct: expressed in transfected cells; host or cells: CHO K1 cells (ECACC), stably transfected
Briefly: Functional testing on vanilloid receptor 1: FLIPR Ca2+ influx assay against capsaicin (Cap) in transfected CHO K1 cells (pharmacological method II). For Ki: 100 nM capsaicin. Format: cell-based. Details: key to (f) Ki (human being) [nM] Cap: agonist classification: AG = agonist. Particulars: @ 1µM; human VR1 in CHO K1 cells; capsaicin; relative to maximum inhibition with 10 µM capsazepine; read-out: inhibition (as a percentage), printed in column (f) Ki (human being) [nM] Cap.
Description: […]
Consider `O=C(NCc1cc(C(F)(F)F)nn1-c1cccc(F)c1)Nc1ccc(OCC(O)CO)cc1` (stereo not shown) [A26, 1-[4-(2,3-Dihydroxy-propoxy)-phenyl]-3-[[2-(3-fluorophenyl)-5-(trifluoromethyl)-2H-pyrazol-3-yl]-methyl]-urea], for which the inhibition at 1 µM is 34%.
On the same count and under the same terms, with `CCOc1cc(C)cc(-n2nc(C(F)(F)F)cc2CNC(=O)Nc2ccc(COCCO)c(F)c2)c1` [A135, 1-[[2-(3-Ethoxy-5-methyl-phenyl)-5-(trifluoromethyl)-2H-pyrazol-3-yl]-methyl]-3-[3-fluoro-4-(2-hydroxy-ethoxy-methyl)-phenyl]-urea] the figure was 15%.

The same test, now with this note: @ 5µM; human VR1 in CHO K1 cells; capsaicin; relative to maximum inhibition with 10 µM capsazepine; read-out: inhibition (as a percentage), printed in column (f) Ki (human being) [nM] Cap.
In the case of `N#Cc1cccc(-n2nc(C(F)(F)F)cc2CNC(=O)Nc2ccc(CO)c(F)c2)c1` [A85, 1-[[2-(3-Cyano-phenyl)-5-(trifluoromethyl)-2H-pyrazol-3-yl]-methyl]-3-[3-fluoro-4-(hydroxymethyl)-phenyl]-urea], the inhibition at 5 µM turned out to be 53%.
Same read-out and setting: under `O=C(NCc1cc(C(F)(F)F)nn1-c1cccc(Cl)c1)Nc1ccc(C(O)(CO)CO)cc1` [A158, 1-[[2-(3-Chlorophenyl)-5-(trifluoromethyl)-2H-pyrazol-3-yl]-methyl]-3-[4-[1,2-dihydroxy-1-(hydroxymethyl)-ethyl]-phenyl]-urea] stands 13%.

The same test, now with this note: human VR1 in CHO K1 cells; AG printed instead of a Ki.
On to `CC(C(=O)NCc1cc(C(C)(C)C)nn1-c1ccc(F)c(F)c1)c1ccc(CO)c(F)c1` (stereo not shown) [A39, N-[[5-tert-Butyl-2-(3,4-difluoro-phenyl)-2H-pyrazol-3-yl]-methyl]-2-[3-fluoro-4-(hydroxymethyl)-phenyl]-propionamide], for which the “(f) Ki (human being) [nM] Cap: agonist classification” value is listed as “AG”.
Same read-out and setting: with `CC(C)(C)c1cc(CNC(=O)Nc2cc(F)c(O)c(F)c2)n(-c2cccc(Cl)c2)n1` [A11, 1-[[5-tert-Butyl-2-(3-chlorophenyl)-2H-pyrazol-3-yl]-methyl]-3-(3,5-difluoro-4-hydroxy-phenyl)-urea] the entry was “AG”; with `COc1ccc(NC(=O)NCc2cc(C(F)(F)F)nn2-c2cccc(Cl)c2)cc1O` [A16, 1-[[2-(3-Chlorophenyl)-5-(trifluoromethyl)-2H-pyrazol-3-yl]-methyl]-3-(3-hydroxy-4-methoxy-phenyl)-urea], “AG”.
On to `COc1cc(NC(=O)NCc2cc(C(F)(F)F)nn2-c2cccc(Cl)c2)ccc1O` [A15, 1-[[2-(3-Chlorophenyl)-5-(trifluoromethyl)-2H-pyrazol-3-yl]-methyl]-3-(4-hydroxy-3-methoxy-phenyl)-urea], for which the “(f) Ki (human being) [nM] Cap: agonist classification” value is on record as “AG”.
Still for that read-out and setting: under `CC(C(=O)NCc1cc(C(C)(C)C)nn1-c1cccc(C(F)(F)F)c1)c1ccc(CO)c(F)c1` (stereo not shown) [A47, N-[[5-tert-Butyl-2-[3-(trifluoromethyl)phenyl]-2H-pyrazol-3-yl]-methyl]-2-[3-fluoro-4-(hydroxymethyl)-phenyl]-propionamide] stands “AG”.

The same test, now with this note: read-out: (f) Ki (human being) [nM] Cap.
Consider `O=C(NCc1cc(C(F)(F)F)nn1-c1cccc(Cl)c1)Nc1cc(F)c(O)c(F)c1` [A12, 1-[[2-(3-Chlorophenyl)-5-(trifluoromethyl)-2H-pyrazol-3-yl]-methyl]-3-(3,5-difluoro-4-hydroxy-phenyl)-urea], for which the Ki worked out at 8 nM.
Regarding `CC(C)(C)c1cc(CNC(=O)Nc2ccc(C3(O)COC3)c(F)c2)n(-c2cccc(Cl)c2)n1` [A109, 1-[[5-tert-Butyl-2-(3-chlorophenyl)-2H-pyrazol-3-yl]-methyl]-3-[3-fluoro-4-(3-hydroxy-oxetan-3-yl)-phenyl]-urea], the Ki is 43 nM.
The same measure, in the same setting: under `COc1ccc(-n2nc(C(F)(F)F)cc2CNC(=O)Nc2ccc(CO)c(F)c2)cc1F` [A95, 1-[3-Fluoro-4-(hydroxymethyl)-phenyl]-3-[[2-(3-fluoro-4-methoxy-phenyl)-5-(trifluoromethyl)-2H-pyrazol-3-yl]-methyl]-urea] stands 13 nM; under `O=C(NCc1cc(C(F)(F)F)nn1-c1cccc(Cl)c1)Nc1ccc(C2(O)CC2)c(F)c1` [A106, 1-[[2-(3-Chlorophenyl)-5-(trifluoromethyl)-2H-pyrazol-3-yl]-methyl]-3-[3-fluoro-4-(1-hydroxy-cyclopropyl)-phenyl]-urea], 31 nM.
Still for that read-out and setting: with `CC(C(=O)NCc1cc(C(F)(F)F)nn1-c1cccc(F)c1)c1ccc(CCO)c(F)c1` (stereo not shown) [A136, 2-[3-Fluoro-4-(2-hydroxy-ethyl)-phenyl]-N-[[2-(3-fluorophenyl)-5-(trifluoromethyl)-2H-pyrazol-3-yl]-methyl]-propionamide] the figure was 40 nM; with `CN(C)c1cccc(-n2nc(C(F)(F)F)cc2CNC(=O)Nc2ccc(CO)c(F)c2)c1` [A86, 1-[[2-(3-Dimethylamino-phenyl)-5-(trifluoromethyl)-2H-pyrazol-3-yl]-methyl]-3-[3-fluoro-4-(hydroxymethyl)-phenyl]-urea], 25 nM; with `COc1c(F)cc(C(C)C(=O)NCc2cc(C(F)(F)F)nn2-c2ccc(F)c(Cl)c2)cc1F` (stereo not shown) [A9, N-[[2-(3-Chloro-4-fluoro-phenyl)-5-(trifluoromethyl)-2H-pyrazol-3-yl]-methyl]-2-(3,5-difluoro-4-methoxy-phenyl)-propionamide], 7 nM.
On the same count and under the same terms, with `CC(C)(C)c1cc(CNC(=O)Nc2ccc(CO)c(Cl)c2)n(-c2cccc(Cl)c2)n1` [A96, 1-[[5-tert-Butyl-2-(3-chlorophenyl)-2H-pyrazol-3-yl]-methyl]-3-[3-chloro-4-(hydroxymethyl)-phenyl]-urea] the figure was 2 nM; with `CC(C)(C)c1cc(CNC(=O)Nc2ccc(CO)c(F)c2)n(-c2ccc(F)c(F)c2)n1` [A57, 1-[[5-tert-Butyl-2-(3,4-difluoro-phenyl)-2H-pyrazol-3-yl]-methyl]-3-[3-fluoro-4-(hydroxymethyl)-phenyl]-urea], 2 nM; with `COc1ccc(-n2nc(C(F)(F)F)cc2CNC(=O)Nc2ccc(CO)c(F)c2)cc1C` [A87, 1-[3-Fluoro-4-(hydroxymethyl)-phenyl]-3-[[2-(4-methoxy-3-methyl-phenyl)-5-(trifluoromethyl)-2H-pyrazol-3-yl]-methyl]-urea], 63 nM.
For `CC(C(=O)NCc1cc(C2CC2)nn1-c1cccc(Cl)c1)c1ccc(CO)c(F)c1` (stereo not shown) [A31, N-[[2-(3-Chlorophenyl)-5-cyclopropyl-2H-pyrazol-3-yl]-methyl]-2-[3-fluoro-4-(hydroxymethyl)-phenyl]-propionamide], the Ki was determined as 3 nM.
On the same count and under the same terms, with `O=C(NCc1cc(C(F)(F)F)nn1-c1cccc(Cl)c1)Nc1ccc(C2(O)COC2)cc1` [A108, 1-[[2-(3-Chlorophenyl)-5-(trifluoromethyl)-2H-pyrazol-3-yl]-methyl]-3-[4-(3-hydroxy-oxetan-3-yl)-phenyl]-urea] the figure was 48 nM.
Still for that read-out and setting: under `O=C(NCc1cc(C(F)(F)F)nn1-c1cccc(Cl)c1)Nc1ccc(CO)c(Cl)c1` [A97, 1-[3-Chloro-4-(hydroxymethyl)-phenyl]-3-[[2-(3-chlorophenyl)-5-(trifluoromethyl)-2H-pyrazol-3-yl]-methyl]-urea] stands 11 nM; under `O=C(NCc1cc(C(F)(F)F)nn1-c1cccc(Cl)c1)Nc1ccc(C(O)CO)c(F)c1` (stereo not shown) [A151, 1-[[2-(3-Chlorophenyl)-5-(trifluoromethyl)-2H-pyrazol-3-yl]-methyl]-3-[4-(1,2-dihydroxy-ethyl)-3-fluoro-phenyl]-urea], 62 nM.
Consider `COc1cccc(-n2nc(C(F)(F)F)cc2CNC(=O)Nc2ccc(CO)c(F)c2)c1` [A67, 1-[3-Fluoro-4-(hydroxymethyl)-phenyl]-3-[[2-(3-methoxyphenyl)-5-(trifluoromethyl)-2H-pyrazol-3-yl]-methyl]-urea], for which the inhibition constant Ki came out at 43 nM.
Same read-out and setting: with `Cc1cc(C)cc(-n2nc(C(F)(F)F)cc2CNC(=O)Nc2ccc(CO)c(F)c2)c1` [A73, 1-[[2-(3,5-Dimethyl-phenyl)-5-(trifluoromethyl)-2H-pyrazol-3-yl]-methyl]-3-[3-fluoro-4-(hydroxymethyl)-phenyl]-urea] the figure was 27 nM; with `COc1ccc(NC(=O)NCc2cc(C(F)(F)F)nn2-c2cccc(Cl)c2)cc1OC` [A14, 1-[[2-(3-Chlorophenyl)-5-(trifluoromethyl)-2H-pyrazol-3-yl]-methyl]-3-(3,4-dimethoxyphenyl)-urea], 25 nM; with `COc1c(F)cc(CC(=O)NCc2cc(C(F)(F)F)nn2-c2ccc(F)c(Cl)c2)cc1F` [A7, N-[[2-(3-Chloro-4-fluoro-phenyl)-5-(trifluoromethyl)-2H-pyrazol-3-yl]-methyl]-2-(3,5-difluoro-4-methoxy-phenyl)-acetamide], 26 nM.
On the same count and under the same terms, under `COc1c(F)cc(CC(=O)NCc2cc(C(C)(C)C)nn2-c2cccc(Cl)c2)cc1F` [A1, N-[[5-tert-Butyl-2-(3-chlorophenyl)-2H-pyrazol-3-yl]-methyl]-2-(3,5-difluoro-4-methoxy-phenyl)-acetamide] stands 12 nM; under `CC(C)(C)c1cc(CNC(=O)Cc2ccc(CO)c(F)c2)n(-c2cccc(Cl)c2)n1` [A29, N-[[5-tert-Butyl-2-(3-chlorophenyl)-2H-pyrazol-3-yl]-methyl]-2-[3-fluoro-4-(hydroxymethyl)-phenyl]-acetamide], 1 nM; under `CC(C)(C)c1cc(CNC(=O)Nc2ccc(CO)cc2)n(-c2cccc(Cl)c2)n1` [A27, 1-[[5-tert-Butyl-2-(3-chlorophenyl)-2H-pyrazol-3-yl]-methyl]-3-[4-(hydroxymethyl)-phenyl]-urea], 1 nM.
In the case of `O=C(NCc1cc(C(F)(F)F)nn1-c1cccc(Cl)c1Cl)Nc1ccc(COCCO)c(F)c1` [A133, 1-[[2-(2,3-Dichloro-phenyl)-5-(trifluoromethyl)-2H-pyrazol-3-yl]-methyl]-3-[3-fluoro-4-(2-hydroxy-ethoxy-methyl)-phenyl]-urea], the inhibitory constant (Ki) came out at 12 nM.

For the origin of these results see patent EP2776398B1, “SUBSTITUTED PYRAZOLYL-BASED UREA DERIVATIVES AS VANILLOID RECEPTOR LIGANDS” (Medifron DBT Inc., priority 2011, dated 2013).
